Laboratory results taken from US20230322715A1, “BROAD SPECTRUM ANTI-CANCER COMPOUNDS” (The Regents of the University of California, priority 2019, published 2023).
Several values for one entry are separate records, joined by “and”; a condition that tells them apart may be missing. Equal values may be shown once. Read-outs that look alike come from different tables or passages of the source.

Legend:
[1] = system: cancer cells by cancer type; details: read-out: EC50 of Chemo SOC, cited from earlier work
FTO = FTO (Homo sapiens (Human), UniProt Q9C0B1); assay: Fluorescence enzymatic inhibition assay (m6A7-Broccoli RNA / DFHBI-1T) against FTO; format: biochemical; details: for IC50: m6A7-Broccoli fluorescence assay, 0.250 μM FTO, inhibitor up to 40 μM, triplicate, read-out: Enzymatic IC50 FTO; for precipitation in assay buffer: dose response could not be determined; for selectivity between FTO and ALKBH5: comparison of enzymatic IC50 values
Chain of FTO (Q9C0B1 whole entry): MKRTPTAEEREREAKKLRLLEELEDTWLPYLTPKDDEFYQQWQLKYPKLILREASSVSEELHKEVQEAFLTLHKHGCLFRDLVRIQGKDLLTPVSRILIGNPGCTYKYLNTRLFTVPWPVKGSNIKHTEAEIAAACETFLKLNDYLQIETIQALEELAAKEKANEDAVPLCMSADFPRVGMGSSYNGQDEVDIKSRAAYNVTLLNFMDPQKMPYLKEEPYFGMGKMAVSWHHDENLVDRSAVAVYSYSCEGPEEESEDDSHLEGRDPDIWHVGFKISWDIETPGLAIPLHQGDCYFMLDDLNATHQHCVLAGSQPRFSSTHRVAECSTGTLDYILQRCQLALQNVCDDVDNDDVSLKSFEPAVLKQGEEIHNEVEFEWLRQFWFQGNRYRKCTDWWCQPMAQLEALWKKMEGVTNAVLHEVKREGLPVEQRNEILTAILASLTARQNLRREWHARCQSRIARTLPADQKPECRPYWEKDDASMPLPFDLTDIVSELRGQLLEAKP
Description: In order to determine their efficacy as FTO inhibitors, the compounds were screened by a fluorescence enzymatic inhibition assay developed previously by the Jaffrey lab.^44 Briefly, a nonfluorescent methylated RNA substrate termed “m6A7-Broccoli” is incubated with FTO in the presence of 2-oxoglutarate (300 μM), (NH4)2Fe(SO4)2·6H2O (300 μM), and L-ascorbate (2 mM) for 2 hours at room temperature in reaction buffer (50 mM NaHEPES, pH 6).
(§1) Inhibitors were added in concentrations ranging from 0.008-40 μM; all inhibitors were dissolved in DMSO and added to a final concentration of 0.2% DMSO. […] After incubation at room temperature for 2 hours, the plates were left at 4° C. overnight (16 hours) to allow DFHBI-1T to bind to A7-Broccoli RNA. […] Sigmoidal dose-response curves were fitted in GraphPad Prism 6. All assays were performed in triplicate, with additional repetitions added as necessary.

ALKBH5 = ALKBH5 (Homo sapiens (Human), UniProt Q6P6C2); assay: Fluorescence enzymatic inhibition assay (m6A7-Broccoli RNA / DFHBI-1T) against ALKBH5; format: biochemical; details: for IC50: m6A7-Broccoli fluorescence assay, 0.250 μM ALKBH5, read-out: Enzymatic IC50 ALKBH5
Chain of ALKBH5 (Q6P6C2 whole entry): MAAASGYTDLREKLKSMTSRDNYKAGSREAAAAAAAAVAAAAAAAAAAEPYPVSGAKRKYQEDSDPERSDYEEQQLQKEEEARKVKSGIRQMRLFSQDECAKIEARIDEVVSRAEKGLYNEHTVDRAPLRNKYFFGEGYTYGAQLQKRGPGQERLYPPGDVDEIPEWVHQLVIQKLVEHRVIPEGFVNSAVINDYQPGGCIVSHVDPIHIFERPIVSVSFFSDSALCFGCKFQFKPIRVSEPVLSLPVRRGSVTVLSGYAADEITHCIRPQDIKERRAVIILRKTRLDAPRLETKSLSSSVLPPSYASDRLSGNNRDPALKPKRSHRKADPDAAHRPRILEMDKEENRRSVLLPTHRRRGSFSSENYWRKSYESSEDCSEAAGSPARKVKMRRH
Description: as §1

[2] = elogD / log D determination
YTHDF1 = YTHDF1 (Homo sapiens (Human), UniProt Q9BYJ9); assay: In vitro FRET assay for binding affinities of YTH inhibitors, YTHDF1
Chain of YTHDF1 (Q9BYJ9 whole entry): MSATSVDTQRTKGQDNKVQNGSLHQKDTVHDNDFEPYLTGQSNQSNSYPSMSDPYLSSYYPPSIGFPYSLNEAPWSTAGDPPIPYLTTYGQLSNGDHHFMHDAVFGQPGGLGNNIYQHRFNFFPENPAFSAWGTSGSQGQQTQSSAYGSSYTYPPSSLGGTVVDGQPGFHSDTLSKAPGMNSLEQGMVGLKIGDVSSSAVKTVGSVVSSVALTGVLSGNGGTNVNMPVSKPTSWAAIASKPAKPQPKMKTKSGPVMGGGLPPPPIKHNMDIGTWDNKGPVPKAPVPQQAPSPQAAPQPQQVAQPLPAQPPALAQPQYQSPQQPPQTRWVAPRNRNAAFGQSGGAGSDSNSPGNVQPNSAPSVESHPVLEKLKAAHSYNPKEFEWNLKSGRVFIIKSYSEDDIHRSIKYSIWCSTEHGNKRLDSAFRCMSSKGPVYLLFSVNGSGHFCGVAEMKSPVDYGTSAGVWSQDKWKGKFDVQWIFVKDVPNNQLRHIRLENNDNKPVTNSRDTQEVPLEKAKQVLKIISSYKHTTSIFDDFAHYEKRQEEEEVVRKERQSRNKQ
Description: (§2) FIG. 8-2 depicts possible design and synthesis of compound libraries. In Vitro FRET assay development could yield a high throughput FRET assay to determine binding affinities for potential YHT inhibitors against YTHDF1, YTHDF2, YTHDF3, or other similar proteins.

YTHDF2 = YTHDF2 (Homo sapiens (Human), UniProt Q9Y5A9); assay: In vitro FRET assay for binding affinities of YTH inhibitors, YTHDF2
Chain of YTHDF2 (Q9Y5A9 whole entry): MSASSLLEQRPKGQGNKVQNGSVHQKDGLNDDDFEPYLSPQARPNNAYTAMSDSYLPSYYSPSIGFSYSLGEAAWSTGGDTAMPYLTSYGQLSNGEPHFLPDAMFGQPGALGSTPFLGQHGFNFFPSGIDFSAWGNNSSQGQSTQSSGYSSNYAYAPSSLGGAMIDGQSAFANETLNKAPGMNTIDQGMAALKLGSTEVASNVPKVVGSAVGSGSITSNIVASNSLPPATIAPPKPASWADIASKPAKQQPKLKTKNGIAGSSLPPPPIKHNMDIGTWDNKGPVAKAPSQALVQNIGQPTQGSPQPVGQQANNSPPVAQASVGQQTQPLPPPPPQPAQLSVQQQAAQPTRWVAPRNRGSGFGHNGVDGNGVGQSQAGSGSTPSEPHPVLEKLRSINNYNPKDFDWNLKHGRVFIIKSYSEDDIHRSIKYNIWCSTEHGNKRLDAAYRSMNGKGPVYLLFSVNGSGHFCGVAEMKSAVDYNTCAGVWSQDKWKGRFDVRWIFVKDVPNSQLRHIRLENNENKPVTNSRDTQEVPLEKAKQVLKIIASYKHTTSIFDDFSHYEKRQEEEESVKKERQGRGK
Description: as §2

[3] = Ki values for YTH library against YTHDF2, read-out: Ki

Row | IC50 (FTO) | melting point [°C] | Ki (YTHDF1; read-out: Ki (pM) YTHDF1) [pM] | Ki (YTHDF1; read-out: Ki YTHDF1) [pM] | Ki (YTHDF2; [3]) [pM] | Ki (YTHDF2; read-out: Ki (pM) YTHDF2) [pM] | Ki (YTHDF2; read-out: Ki YTHDF2) [pM] | SMILES | further results
1 |  |  |  |  |  |  |  | O=c1[nH]cc(F)c(=O)[nH]1 [5FU, fluorouracil] | EC50 ([1]; Colon): 2000 to 10000 nM; EC50 ([1]; Gastric): 28800 nM
2 |  |  |  |  |  |  |  | Nc1ccn([C@@H]2O[C@H](CO)[C@@H](O)[C@@H]2O)c(=O)n1 [Cytarabine] | EC50 ([1]; Leukemia): 250 to 3500 nM
3 | 41700 nM | 230 |  |  |  |  |  | Oc1ccc2cc(-c3cncnc3)ccc2c1 [FTO-1, 6-(pyrimidin-5-yl)naphthalen-2-ol] | inhibition of ALKBH5 at the highest concentration measured (ALKBH5): no measurable inhibition; IC50 (ALKBH5): > 40000 nM
4 |  | 230 |  |  |  |  |  | COc1ncc(-c2cccc(OCc3ccccc3)c2)cn1 [FTO-3, 5-(3-(benzyloxy)phenyl)-2-methoxypyrimidine] | precipitation in assay buffer (FTO): significant precipitation
5 | 29100 nM | 230 |  |  |  |  |  | Cc1ccc2cc(-c3cncnc3)ccc2n1 [FTO-7, 2-methyl-6-(pyrimidin-5-yl)quinoline] | inhibition of ALKBH5 at the highest concentration measured (ALKBH5): no measurable inhibition; IC50 (ALKBH5): > 40000 nM
6 |  | 230 |  |  |  |  |  | COc1ccc2cc(-c3cnc(OC)nc3)ccc2c1 [FTO-8, 2-methoxy-5-(6-methoxynaphthalen-2-yl)pyrimidine] | selectivity between FTO and ALKBH5 (FTO): equivalent inhibitors towards both demethylases; IC50 (ALKBH5): 16400 nM
7 | 36700 nM | 230 |  |  |  |  |  | Nc1ncc(-c2cccc(OCc3ccccc3)c2)cn1 [FTO-13, 5-(3-(benzyloxy)phenyl)pyrimidin-2-amine] | selectivity between FTO and ALKBH5 (FTO): distinct preference towards ALKBH5 over FTO; IC50 (ALKBH5): 14900 nM
8 | 59600 nM | 230 |  |  |  |  |  | Cc1ccc2cc(-c3cnc(N)nc3)ccc2n1 [FTO-14, 5-(2-methylquinolin-6-yl)pyrimidin-2-amine] | 
9 |  | 230 |  |  |  |  |  | COCCNc1ncc(-c2ccc3cc(OC)ccc3c2)cn1 [FTO-15, N-(2-methoxyethyl)-5-(6-methoxynaphthalen-2-yl)pyrimidin-2-amine] | precipitation in assay buffer (FTO): significant precipitation
10 | 46500 nM | 230 |  |  |  |  |  | COCCNc1ncc(-c2ccc3cc(O)ccc3c2)cn1 [FTO-16, 6-(2-((2-methoxyethyl)amino)pyrimidin-5-yl)naphthalen-2-ol] | 
11 | 51900 nM | 230 |  |  |  |  |  | COCCNc1ncc(-c2ccc3ccc(O)cc3c2)cn1 [FTO-17, 7-(2-((2-methoxyethyl)amino)pyrimidin-5-yl)naphthalen-2-ol] | 
12 |  | 230 |  |  |  |  |  | COCCNc1ncc(-c2ccc(OCc3ccccc3)cc2)cn1 [FTO-18, 5-(4-(benzyloxy)phenyl)-N-(2-methoxyethyl)pyrimidin-2-amine] | inhibition of ALKBH5 at the highest concentration measured (ALKBH5): no measurable inhibition; IC50 (ALKBH5): > 40000 nM
13 | 25200 nM | 230 |  |  |  |  |  | COCCNc1ncc(-c2ccc3nc(C)ccc3c2)cn1 [FTO-19, N-(2-methoxyethyl)-5-(2-methylquinolin-6-yl)pyrimidin-2-amine] | selectivity between FTO and ALKBH5 (FTO): equivalent inhibitors towards both demethylases; IC50 (ALKBH5): 53500 nM
14 |  |  |  |  |  |  |  | O=C(c1cc(Cc2n[nH]c(=O)c3ccccc23)ccc1F)N1CCN(C(=O)C2CC2)CC1 [Olaparib] | EC50 ([1]; Breast): 30000 nM
15 |  |  | 164 ± 21 | 164 ± 21 | 102 ± 15 | 102 ± 15 | 102 ± 15 | COc1ccc(CNc2ccc(CNC3CC3)cn2)cc1 [TR-YTH-01] | 
16 |  |  | 229 ± 57 | 229 ± 57 | 182 ± 69 | 182 ± 69 | 182 ± 69 | COc1ccc(CNc2ccc(CNC3CC3)cn2)c(OC)c1 [TR-YTH-02] | 
17 |  |  | 123 ± 6 | 123 ± 6 | 85 ± 26 | 85 ± 26 | 85 ± 26 | COc1ccc(CNc2ccc(CNC3CC3)cn2)cc1OC [TR-YTH-03] | 

Row | IC50 (FTO) | melting point [°C] | Ki (YTHDF1; read-out: Ki (pM) YTHDF1) [pM] | Ki (YTHDF1; read-out: Ki YTHDF1) [pM] | Ki (YTHDF2; [3]) [pM] | Ki (YTHDF2; read-out: Ki (pM) YTHDF2) [pM] | Ki (YTHDF2; read-out: Ki YTHDF2) [pM] | SMILES | further results
18 |  |  | 129 ± 6 | 129 ± 6 | 100 ± 34 | 100 ± 34 | 100 ± 34 | CC(Nc1ccc(CNC2CC2)cn1)c1ccccc1 (centres unmarked) [TR-YTH-04] | 
19 |  |  | 90 ± 10 | 90 ± 10 | 70 ± 12 | 70 ± 12 | 70 ± 12 | c1cncc(CNc2ccc(CNC3CC3)cn2)c1 [TR-YTH-05] | 
20 |  |  | 285 | 285 ± 154 | 395 ± 51 | 395 ± 51 | 395 ± 51 | Fc1ccc(CNc2ccc(CNC3CC3)cn2)cc1F [TR-YTH-06] | 
21 |  |  | 162 ± 30 | 162 ± 30 | 77 ± 18 | 77 ± 18 | 77 ± 18 | FC(F)(F)c1ccc(CNc2ccc(CNC3CC3)cn2)cc1 [TR-YTH-07] | 
22 |  |  | 880 ± 194 | 880 ± 194 |  |  |  | Fc1ccc(CNc2ccc(CNC3CC3)cn2)cc1 [TR-YTH-08] | 
23 |  |  | 281 ± 9 | 281 ± 9 | 172 ± 49 | 172 ± 49 | 172 ± 49 | Fc1cccc(F)c1CNc1ccc(CNC2CC2)cn1 [TR-YTH-09] | 
24 |  |  | 615 ± 107 | 615 ± 107 | 106 ± 26 | 106 ± 26 | 106 ± 26 | CN(Cc1ccc(C(F)(F)F)cc1)c1ccc(CNC2CC2)cn1 [TR-YTH-10] | 
25 |  |  | 1420 ± 375 | 1420 ± 375 | 850 ± 115 | 850 ± 115 | 850 ± 115 | Cc1ccc(Nc2ccc(CNC3CC3)cn2)cc1C [TR-YTH-12] | 
26 |  |  | 236 ± 51 | 236 ± 51 | 145 ± 33 | 145 ± 33 | 145 ± 33 | Fc1ccnc(Nc2ccc(CNC3CC3)cn2)c1 [TR-YTH-15] | 
27 |  |  | 214 ± 50 | 214 ± 50 | 179 ± 36 | 179 ± 36 | 179 ± 36 | COc1ccc(CNc2ccc(CN(C)C)cn2)cc1 [TR-YTH-16] | 
28 |  |  | 209 ± 27 | 209 ± 27 | 95 ± 13 | 95 ± 13 | 95 ± 13 | CC(Nc1ccc(CN(C)C)cn1)c1ccccc1 (centres unmarked) [TR-YTH-18] | 
29 |  |  | 391 ± 66 | 391 ± 66 | 107 ± 19 | 107 ± 19 | 107 ± 19 | CN(C)Cc1ccc(NCc2ccc(F)cc2)nc1 [TR-YTH-19] | 
30 |  |  |  |  |  |  |  | N.N.[Cl][Pt][Cl] [cisplatin] | EC50 ([1]; Breast): 5000 nM; EC50 ([1]; Esophagoel): 8000 nM; EC50 ([1]; Gastric): 13500 to 25000 nM; EC50 ([1]; Ovarian): 2000 to 40000 nM; EC50 ([1]; Pancreatic): 20000 to 26000 nM
31 |  |  |  |  |  |  |  | Nc1ccn([C@@H]2O[C@H](CO)[C@@H](O)C2(F)F)c(=O)n1 [gemcitabine] | EC50 ([1]; Pancreatic): < 1000 nM
32 |  |  |  |  |  |  |  | CS(=O)(=O)CCNCc1ccc(-c2ccc3ncnc(Nc4ccc(OCc5cccc(F)c5)c(Cl)c4)c3c2)o1 [lapatinib] | EC50 ([1]; Breast): 137000 nM
33 |  |  |  |  |  |  |  | O=C1[O][Pt]2([NH][C@@H]3CCCC[C@H]3[NH]2)[O]C1=O [oxalplatin, oxaliplatin] | EC50 ([1]; Colon): 2000 to 20000 nM; EC50 ([1]; Esophagoel): 37000 nM; EC50 ([1]; Pancreatic): 3500 to 10000 nM

Row | SMILES | IC50 (FTO) | melting point [°C] | Ki (YTHDF1; read-out: Ki (pM) YTHDF1) [pM] | Ki (YTHDF1; read-out: Ki YTHDF1) [pM] | Ki (YTHDF2; [3]) [pM] | Ki (YTHDF2; read-out: Ki (pM) YTHDF2) [pM] | Ki (YTHDF2; read-out: Ki YTHDF2) [pM] | further results
34 | COc1ccc2cc(-c3cncnc3)ccc2c1 [FTO-5, 5-(6-methoxynaphthalen-2-yl)pyrimidine] | 13400 ± 2300 nM | 230 |  |  |  |  |  | selectivity between FTO and ALKBH5 (FTO): five-fold or higher; inhibition of ALKBH5 at the highest concentration measured (ALKBH5): no measurable inhibition; IC50 (ALKBH5): > 40000 nM
35 | COc1ncc(-c2ccc(CO)c(OC)c2)cn1 [FTO-6, (2-methoxy-4-(2-methoxypyrimidin-5-yl)phenyl)methanol] | 13800 ± 2400 nM | 230 |  |  |  |  |  | selectivity between FTO and ALKBH5 (FTO): five-fold or higher
36 | Nc1ncc(-c2cccc(Nc3ccccc3)c2)cn1 [FTO-9, 5-(3-(phenylamino)phenyl)pyrimidin-2-amine] | > 40000 nM and 43800 nM | 230 |  |  |  |  |  | selectivity between FTO and ALKBH5 (FTO): distinct preference towards ALKBH5 over FTO; IC50 (ALKBH5): 5200 nM
37 | COCCNc1ncc(-c2ccc(CO)c(OC)c2)cn1 [FTO-20, (2-methoxy-4-(2-((2-methoxyethyl)amino)pyrimidin-5-yl)phenyl)methanol] | 17200 ± 2900 nM | 230 |  |  |  |  |  | selectivity between FTO and ALKBH5 (FTO): five-fold or higher; IC50 (ALKBH5): 90200 ± 7800 nM
38 | FC(F)(F)c1cccc(CNCC2(N3CCCC3)COC2)c1 [TR-FTO-02] | 4300 nM |  |  |  |  |  |  | IC50 (ALKBH5): 19500 nM; elogD [2]: 1.02
39 | FC1CCN(C2(CNCc3ccc(-c4ccccc4)o3)COC2)C1 (centres unmarked) [TR-FTO-48] | 2000 nM |  |  |  |  |  |  | IC50 (ALKBH5): 2600 nM; elogD [2]: 1.34
